# In PubChem BioAssay AID1259418 (Broad Institute, 2018):
# “And” between values parts separate entries of the source, which are not always exact repeats. Equal values may be shown once. Inconclusive results are not listed. The source made the active and inactive calls.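 How the source made its calls: active means fitted half-maximal concentration of signal decrease at or below twice the sample's top tested concentration; inconclusive means flat curve between -70 and -30 percent, or poor fit; inactive means flat within 30 percent, signal rise, or potency above limit.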
# Molecular target: T. gondii ME49Luc in IFN-y HeLa, luciferase, 72 h
# Experiment: inhibitors of Toxoplasma growth in IFN-γ-primed HeLa – cell-based, ME49Luc, luciferase, 72 h, dose response (AID 1259418)
row,Structure (SMILES),AC50
1,CCCNC(=O)c1cc(-c2ccn(CC3CC3)n2)n2ccccc12,26.9 µM
2,COc1cc2c(cc1O)CC[C@@H]1[C@@H]2CC[C@]2(C)[C@@H](O)CC[C@@H]12,1.99 µM and 4.21 µM
3,COc1cccc(-c2nc(C)c(-c3ccc(SCc4ccc(Cl)cc4)nn3)s2)c1,8.76 µM
4,COc1ccc(CNC(=O)CCC2N=C3c4ccccc4N=C(SCc4cccc(F)c4)N3C2=O)cc1 (stereo not drawn),20.4 µM
5,Cc1ccc(-c2nc(CN3CCN(C(=O)Nc4ccc(C)c(C)c4)CC3)c(C)o2)cc1,23.2 µM
6,Cc1csc(-c2cc(S(=O)(=O)NCCCN3CCC(C)CC3)c(C)s2)n1,> 39 µM (inactive)
7,O=C(c1cnccn1)N1CC(=O)N2[C@H](CO)[C@H](c3ccc(-c4cccc(F)c4)cc3)[C@H]2C1,13.9 µM and 25 µM
8,O=C1c2cccc(O)c2C(=O)c2c(O)cc(CO)cc21,16.6 µM
9,CC(C)n1c(C(=O)N2CCN(c3ccncc3)CC2)cc2c1c1ccccc1n2C,19.9 µM
10,Cc1nc2ccccn2c1CN(C)Cc1cnn(-c2ccccc2)c1,> 39 µM (inactive)
11,O=C1CCc2cc(S(=O)(=O)NCCc3ccccc3)cc3c2N1CCC3,14 µM
12,Cc1cc(C)c(S(=O)(=O)N2CCC(C(=O)NCCc3csc(-c4ccccc4)n3)CC2)cc1C,14.7 µM
13,CCc1cc(C2CCCN2C(=O)c2cc(C(F)(F)F)nn2C)on1 (stereo not drawn),> 39 µM (inactive)
14,COc1ccc(Cc2cnc(N)nc2N)cc1OC,23.2 µM
15,N#Cc1ccc(-c2ccc([C@@H]3[C@@H](CO)N4C(=O)CNC[C@H]34)cc2)cc1,11.8 µM
16,O=C(CCC1N=C2c3ccccc3N=C(SCc3ccccc3F)N2C1=O)NCc1ccccc1 (stereo not drawn),29.4 µM
17,COc1cccc(C(=O)Nc2ccc3c(c2)C(=O)N(C)[C@@H]2CC[C@H](CC(=O)NCc4ccc(F)cc4)O[C@@H]2CO3)c1,9.13 µM
18,CN(C)CCNC(=O)c1ccc2onc(-c3coc(C4CC4)n3)c2c1,21.3 µM
19,COc1ccc(-c2nc(C)c(-c3ccc(SCc4cc(C)ccc4C)nn3)s2)cc1,> 39 µM (inactive)
20,CCCN(C/C=C/I)C1CCc2cccc(O)c2C1 (stereo not drawn),30.9 µM
21,O=C(NCCc1csc(-c2ccccc2)n1)C1CCN(C(=O)c2ccc(F)c(Cl)c2)CC1,5.61 µM
22,Cc1ccc(-c2nc(CN3CCN(C(=O)Nc4ccc(C)c(F)c4)CC3)c(C)o2)cc1,8.58 µM
23,O=C(NC1CCCC1)N1CCCCN2[C@@H](CO)[C@H](c3ccc(-c4cccnc4)cc3)[C@@H]2C1,23.3 µM
24,C[C@@H]1CN([C@@H](C)CO)C(=O)Cc2cc(NC(=O)C3CCCCC3)ccc2O[C@@H]1CN(C)Cc1ccc(Cl)c(Cl)c1,15.1 µM and 5.01 µM

row,Structure (SMILES),AC50
1,COc1ccc(-c2nc(CN(c3cccc(OC)c3)S(=O)(=O)c3ccccc3)c(C)o2)cc1,9.75 µM
2,COCC1(C(=O)N2CCc3c(nc(-c4ccccc4)[nH]c3=O)C2)CCC1,36.2 µM
3,COc1ccccc1N(Cc1nc(-c2ccc(C)cc2)oc1C)S(=O)(=O)c1ccc(C)cc1,10.3 µM
4,CCc1ccc(S(=O)(=O)N2CCC3(CC2)NCCN=C3NCc2ccc(C)cc2)cc1,8.88 µM
5,COc1ccc2c(c1)NC1(CCN(C(=O)Cc3ccc(OC)c(OC)c3)CC1)c1cccn1-2,> 39 µM (inactive)
6,Cc1ccccc1-c1ccc(C2[C@@H]3CN(Cc4cncnc4)C[C@H]2N3)cc1 (stereo partly drawn),19 µM
7,COc1ccc(OCC(=O)N2CCC3(CC2)Nc2cc(OC)ccc2-n2cccc23)cc1,38.3 µM
8,Cc1nc(-c2cccc(-c3noc(C(=O)NCCCN4CCC(C)CC4)n3)c2)cs1,> 39 µM (inactive)
9,Cc1ccc(CNC2=NCCNC23CCN(S(=O)(=O)c2cc(C)c(C)cc2C)CC3)cc1,4.79 µM
10,O=C(CC1N=C2c3ccccc3N=C(SCc3ccc(Cl)cc3)N2C1=O)NCCc1ccccc1 (stereo not drawn),20.4 µM
11,O=C(Nc1ccc(Cl)cc1)N1[C@@H]2CNC[C@H]1C2c1ccc(-c2ccccc2)cc1 (stereo partly drawn),2.02 µM and 2.94 µM
12,Cc1ccc(NC(=O)N2CCN(Cc3nc(-c4cccc(Cl)c4)oc3C)CC2)c(Cl)c1,34.2 µM
13,CCOc1ccc(NC(=O)CN2CCC3(CC2)N=C(c2ccc(Cl)cc2)C(=O)N3)cc1,> 39 µM (inactive)
14,CC(=O)NCc1nnn2c1CN(c1ncccn1)CCC2,10.9 µM
15,CCCCCCC(C)(C)c1ccc(C2CC(O)CCC2CCCO)c(O)c1 (stereo not drawn),8.47 µM
16,CC(C)Cc1ccc(S(=O)(=O)N2CCC3(CC2)NCCN=C3NC2CCCC2)cc1,12.5 µM
17,Cc1cccc(CN2CCC3(CC2)N=C(c2cccc(C)c2)C(=O)N3)c1,> 20 µM (inactive)
18,O=C1CNC[C@H]2[C@@H](c3ccc(C#Cc4cccnc4)cc3)[C@@H](CO)N12,26.8 µM
19,CN1C(=O)c2cc(NC(=O)c3cccc(F)c3)ccc2OC[C@@H]2O[C@H](CC(=O)NCC3CCCCC3)CC[C@@H]21,18.6 µM and 22.1 µM
20,CN(C)C(=O)c1ccc(-c2ccc(C3[C@@H]4CN(Cc5ccc6c(c5)OCO6)C[C@H]3N4)cc2)cc1 (stereo partly drawn),17.3 µM
21,O=C1CCc2cc(NC(=O)c3ccccc3F)ccc2N1,29.7 µM
22,COc1ccc(-c2nc3c(s2)CN(S(=O)(=O)c2ccccc2C)CC3)cc1,6.3 µM and 8.21 µM
23,O=C(Nc1cccc(F)c1)N1CCCCN2[C@@H](CO)[C@H](c3ccc(C#Cc4cccnc4)cc3)[C@@H]2C1,4.48 µM
24,Cc1ccc(S(=O)(=O)N2CCC3(CC2)NCCN=C3NC2CCCCCC2)cc1C,18.6 µM

row,Structure (SMILES),AC50
1,C[C@H](NC(=O)C[C@H]1CC[C@@H]2[C@@H](COc3ccc(NS(=O)(=O)c4ccc(Cl)cc4)cc3C(=O)N2C)O1)c1ccccc1,11.1 µM and 18.1 µM
2,O=C(Nc1cccc(F)c1)N1CCCCN2[C@H](CO)[C@@H](c3ccc(C#Cc4cccnc4)cc3)[C@H]2C1,19.1 µM
3,CCCCNC(=O)CC1N=C2c3ccccc3N=C(SCc3ccc(C)cc3)N2C1=O (stereo not drawn),10.4 µM
4,O=c1c(O)c(-c2ccc(O)c(O)c2)oc2cc(O)cc(O)c12,17.6 µM
5,O=C(CCCCCCNC(=O)c1cnc(N(c2ccccc2)c2ccccc2)nc1)NO,14.8 µM
6,COc1ccccc1-c1nc(CN(c2ccccc2OC)S(=O)(=O)c2ccccc2C)c(C)o1,6.87 µM
7,O=C(Cc1ccncc1)N1C[C@@H]2N[C@H](C1)C2c1ccc(/C=C/c2ccccc2)cc1 (stereo partly drawn),20.9 µM
8,Oc1cccc(-c2nccn2-c2cccc(-c3ccn[nH]3)c2)c1,22.7 µM
9,OC[C@H]1[C@@H](c2ccc(C#Cc3ccccc3F)cc2)[C@@H]2CN(CC3CCOCC3)CCCCN12,15.9 µM
10,COc1ccc(S(=O)(=O)N2CSC[C@@H]2C(=O)NCCc2csc(-c3ccccc3)n2)cc1,17.6 µM
11,Clc1ccc(-c2nc(NC3CCCC3)c3ccccc3n2)cc1,17.6 µM
12,CCOC(=O)c1nn(Cc2ccccc2)c2c1CN(C(=O)CN1CC(c3ccccc3)CC1=O)CC2 (stereo not drawn),> 39 µM (inactive)
13,COc1ccc(OC)c(S(=O)(=O)N2CCc3c([nH]c4ccccc34)C2c2cccc(F)c2)c1 (stereo not drawn),> 39 µM (inactive)
14,Cc1ccc(-c2nc(CN3CCN(C(=O)Nc4ccccc4)CC3)c(C)o2)cc1,17.5 µM
15,Cc1ccccc1-c1nc(CN2CCN(C(=O)NCCc3ccccc3)CC2)c(C)o1,17.4 µM
16,CC(C)C#Cc1ccc([C@H]2[C@@H](CO)N3C(=O)CN(S(=O)(=O)c4ccccc4)C[C@H]23)cc1,13.6 µM
17,COc1ccc(NS(=O)(=O)c2cc3c4c(c2)CCC(=O)N4CCC3)cc1OC,28.4 µM
18,C[C@H](O[C@H]1OCCN(Cc2n[nH]c(=O)[nH]2)[C@H]1c1ccc(F)cc1)c1cc(C(F)(F)F)cc(C(F)(F)F)c1,15.4 µM
19,Cc1nc(OCC(=O)Nc2cc(F)ccc2F)c2ccccc2n1,> 39 µM (inactive)
20,CC(C)CC#Cc1ccc([C@H]2[C@@H](CO)N3C(=O)CN(C(=O)c4cccc(F)c4)C[C@H]23)cc1,15.5 µM
21,O=C(c1ccc(F)cc1)N1CC(=O)N2[C@H](CO)[C@@H](c3ccc(C#CCC4CCCC4)cc3)[C@@H]2C1,17.6 µM and 4.58 µM
22,COc1cccc(CN2C[C@@H]3N[C@H](C2)C3c2ccc(-c3ccccc3C)cc2)c1 (stereo partly drawn),19 µM and 12.1 µM
23,COc1ccccc1-c1nc(CN(c2ccccc2OC)S(=O)(=O)c2ccc(C)cc2)c(C)o1,12.4 µM
24,COc1ccc(CNC2=NCCNC23CCN(S(=O)(=O)c2ccc(C(C)C)cc2)CC3)cc1,19.9 µM

row,Structure (SMILES),AC50
1,CC(C)N1c2ccc(F)cc2[C@@H]2CN(C(=O)c3ccco3)CC[C@H]21,12.8 µM
2,CCN(C[C@@H]1N[C@@H](CO)[C@H]1c1ccc(-c2ccc(F)cc2)cc1)C(=O)CN(C)C,21.3 µM
3,Cc1cccc(CNC2=NCCNC23CCN(S(=O)(=O)c2ccc(C(C)C)cc2)CC3)c1,13 µM
4,Cc1oc(-c2cccc(Cl)c2)nc1CN1CCN(C(=O)Nc2ccc(Cl)cc2)CC1,22.4 µM
5,COc1cccc(S(=O)(=O)N2CCCCN3[C@H](CO)[C@H](c4ccc(C#CCC(C)C)cc4)[C@@H]3C2)c1,13.6 µM and 2.35 µM
6,COc1ccc(CNC2=NCCNC23CCN(S(=O)(=O)c2cc(C)c(C)cc2C)CC3)cc1,12.6 µM
7,COc1ccccc1-c1nc(C)c(-c2ccc(SCc3ccccc3Cl)nn2)s1,> 39 µM (inactive)
8,CCCN1CCc2nc(SCc3nc(-c4ccccc4OC)oc3C)[nH]c(=O)c2C1,> 39 µM (inactive)
9,Cc1cccc(C(=O)N2CCC3(CC2)Nc2cc(F)ccc2-n2cccc23)c1,> 39 µM (inactive)
10,Cc1cc(C(=O)Nc2ccc3c(c2)C(=O)N(C)[C@@H]2CC[C@@H](CC(=O)NCc4ccc(-c5ccccc5)cc4)O[C@@H]2CO3)no1,20.8 µM
11,Cn1ncnc1[C@H]1c2n[nH]c(=O)c3cc(F)cc(c23)N[C@@H]1c1ccc(F)cc1,38.6 µM
12,Cc1ccc(Cn2c(=O)c3nn(C)cc3n3c(=O)n(Cc4nc(-c5ccccc5)oc4C)nc23)cc1,13.1 µM
13,O=C(CC1Nc2c3ccccc3nc(=S)n2C1=O)NCCN1CCN(c2cccc(Cl)c2)CC1 (stereo not drawn),37.1 µM
14,CCOc1ccc(-c2nc(CN(c3ccc(OC)cc3)S(=O)(=O)c3ccccc3C)c(C)o2)cc1,11.8 µM
15,CN1c2ccc(-c3ccccc3)cc2[C@@H]2[C@@H](CCN2C(=O)CC2CC2)[C@@H]1CO,18.5 µM and > 39 µM (inactive)
16,CCOc1ccc(-c2nc(CN(c3ccccc3OC)S(=O)(=O)c3ccccc3)c(C)o2)cc1,8.3 µM
17,CC(C)(C)c1ccc(S(=O)(=O)N2CCC[C@@H]2C(=O)NCCc2csc(-c3ccccc3)n2)cc1,4.48 µM
18,O=C(NCCc1csc(-c2ccccc2)n1)[C@H]1CCCN1C(=O)c1ccccc1,36.5 µM
19,Cc1nc(OCC(=O)Nc2ccc(Br)cc2F)c2ccccc2n1,21 µM
20,CCc1nc(OCC(=O)Nc2ccc(F)c(Cl)c2)c2ccccc2n1,> 39 µM (inactive)
21,CN1c2ccc(-c3ccc(C#N)cc3)cc2[C@@H]2[C@@H](CCN2S(=O)(=O)c2ccc(F)cc2)[C@@H]1CO,15.8 µM
